Measured values: ChEMBL document CHEMBL1649216, “The diarylquinoline R207910 is bactericidal against Mycobacterium leprae in mice at low dose and administered intermittently” (Antimicrob Agents Chemother, 2009)
Activity calls are given as the source filed them.

Columns and labels:
Format in all cases: functional, organism-based
[1] = test system: Mycobacterium leprae; assay: Antimycobacterial activity against Mycobacterium leprae infected in CBA/J mouse assessed as microbial growth inhibition at 1 mg/kg, po administered 5 times weekly during logarithmic multiplication from day 60 to day 150 post infection measured on day 152 post infection; design: dose 1 mg/kg
[2] = test system: Mycobacterium leprae; assay: Antimycobacterial activity against Mycobacterium leprae infected in CBA/J mouse assessed as microbial growth inhibition at 1 mg/kg, po administered 5 times weekly during logarithmic multiplication from day 60 to day 150 post infection measured on day 228 post infection; design: dose 1 mg/kg
[3] = test system: Mycobacterium leprae; assay: Antimycobacterial activity against Mycobacterium leprae infected in CBA/J mouse assessed as microbial growth inhibition at 30 mg/kg, po administered once weekly during logarithmic multiplication from day 60 to day 150 post infection measured on day 302 to 365 post infection; design: dose 30 mg/kg
[4] = test system: Mycobacterium leprae; assay: Antimycobacterial activity against Mycobacterium leprae infected in CBA/J mouse assessed as microbial growth inhibition at 25 mg/kg, po administered 5 times weekly during logarithmic multiplication from day 60 to day 150 post infection measured on day 152 post infection; design: dose 25 mg/kg
[5] = test system: Mycobacterium leprae; assay: Antimycobacterial activity against Mycobacterium leprae infected in CBA/J mouse assessed as microbial growth inhibition at 25 mg/kg, po administered once monthly during logarithmic multiplication from day 60 to day 150 post infection measured on day 228 post infection; design: dose 25 mg/kg
[6] = test system: Mycobacterium leprae; assay: Antimycobacterial activity against Mycobacterium leprae infected in CBA/J mouse assessed as microbial growth inhibition at 25 mg/kg, po administered 5 times weekly during logarithmic multiplication from day 60 to day 150 post infection measured on day 228 post infection; design: dose 25 mg/kg
[7] = test system: Mycobacterium leprae; assay: Antimycobacterial activity against Mycobacterium leprae infected in CBA/J mouse assessed as microbial growth inhibition at 100 mg/kg, po administered once monthly during logarithmic multiplication from day 60 to day 150 post infection measured on day 228 post infection; design: dose 100 mg/kg
[8] = test system: Mycobacterium leprae; assay: Antimycobacterial activity against Mycobacterium leprae infected in CBA/J mouse assessed as microbial growth inhibition at 3 mg/kg, po administered 5 times weekly during logarithmic multiplication from day 60 to day 150 post infection measured on day 152 post infection; design: dose 3 mg/kg
[9] = test system: Mycobacterium leprae; assay: Antimycobacterial activity against Mycobacterium leprae infected in CBA/J mouse assessed as microbial growth inhibition at 100 mg/kg, po administered once weekly during logarithmic multiplication from day 60 to day 150 post infection measured on day 228 post infection; design: dose 100 mg/kg
[10] = test system: Mycobacterium leprae; assay: Antimycobacterial activity against Mycobacterium leprae infected in CBA/J mouse assessed as microbial growth inhibition at 25 mg/kg, po administered once monthly during logarithmic multiplication from day 60 to day 150 post infection measured on day 152 post infection; design: dose 25 mg/kg
[11] = test system: Mycobacterium leprae; assay: Antimycobacterial activity against Mycobacterium leprae infected in CBA/J mouse assessed as microbial growth inhibition at 30 mg/kg, po administered once weekly during logarithmic multiplication from day 60 to day 150 post infection measured on day 228 post infection; design: dose 30 mg/kg
[12] = test system: Mycobacterium leprae; assay: Antimycobacterial activity against Mycobacterium leprae infected in CBA/J mouse assessed as microbial growth inhibition at 50 mg/kg, po administered once weekly during logarithmic multiplication from day 60 to day 150 post infection measured on day 152 post infection; design: dose 50 mg/kg
[13] = test system: Mycobacterium leprae; assay: Antimycobacterial activity against Mycobacterium leprae infected in CBA/J mouse assessed as microbial growth inhibition at 50 mg/kg, po administered once weekly during logarithmic multiplication from day 60 to day 150 post infection measured on day 302 to 365 post infection; design: dose 50 mg/kg
[14] = test system: Mycobacterium leprae; assay: Antimycobacterial activity against Mycobacterium leprae infected in CBA/J mouse assessed as microbial growth inhibition at 30 mg/kg, po administered once weekly during logarithmic multiplication from day 60 to day 150 post infection measured on day 152 post infection; design: dose 30 mg/kg
[15] = test system: Mycobacterium leprae; assay: Antimycobacterial activity against Mycobacterium leprae infected in CBA/J mouse assessed as microbial growth inhibition at 3 mg/kg, po administered 5 times weekly during logarithmic multiplication from day 60 to day 150 post infection measured on day 228 post infection; design: dose 3 mg/kg
[16] = test system: Mycobacterium leprae; assay: Antimycobacterial activity against Mycobacterium leprae infected in CBA/J mouse assessed as microbial growth inhibition at 100 mg/kg, po administered once weekly during logarithmic multiplication from day 60 to day 150 post infection measured on day 302 to 365 post infection; design: dose 100 mg/kg
[17] = test system: Mycobacterium leprae; assay: Antimycobacterial activity against Mycobacterium leprae infected in CBA/J mouse assessed as microbial growth inhibition at 25 mg/kg, po administered once weekly during logarithmic multiplication from day 60 to day 150 post infection measured on day 228 post infection; design: dose 25 mg/kg
[18] = test system: Mycobacterium leprae; assay: Antimycobacterial activity against Mycobacterium leprae infected in CBA/J mouse assessed as microbial growth inhibition at 50 mg/kg, po administered once weekly during logarithmic multiplication from day 60 to day 150 post infection measured on day 228 post infection; design: dose 50 mg/kg
[19] = test system: Mycobacterium leprae; assay: Antimycobacterial activity against Mycobacterium leprae infected in CBA/J mouse assessed as microbial growth inhibition at 100 mg/kg, po administered once weekly during logarithmic multiplication from day 60 to day 150 post infection measured on day 152 post infection; design: dose 100 mg/kg
[20] = test system: Mycobacterium leprae; assay: Antimycobacterial activity against Mycobacterium leprae infected in CBA/J mouse assessed as microbial growth inhibition at 120 mg/kg, po administered once monthly during logarithmic multiplication from day 60 to day 150 post infection measured on day 228 post infection; design: dose 120 mg/kg
[21] = test system: Mycobacterium leprae; assay: Antimycobacterial activity against Mycobacterium leprae infected in CBA/J mouse assessed as microbial growth inhibition at 100 mg/kg, po administered once monthly during logarithmic multiplication from day 60 to day 150 post infection measured on day 152 post infection; design: dose 100 mg/kg
[22] = test system: Mycobacterium leprae; assay: Antimycobacterial activity against Mycobacterium leprae infected in CBA/J mouse assessed as microbial growth inhibition at 6 mg/kg, po administered 5 times weekly during logarithmic multiplication from day 60 to day 150 post infection measured on day 228 post infection; design: dose 6 mg/kg
[23] = test system: Mycobacterium leprae; assay: Antimycobacterial activity against Mycobacterium leprae infected in CBA/J mouse assessed as microbial growth inhibition at 120 mg/kg, po administered once monthly during logarithmic multiplication from day 60 to day 150 post infection measured on day 302 to 365 post infection; design: dose 120 mg/kg
[24] = test system: Mycobacterium leprae; assay: Antimycobacterial activity against Mycobacterium leprae infected in CBA/J mouse assessed as microbial growth inhibition at 50 mg/kg, po administered once monthly during logarithmic multiplication from day 60 to day 150 post infection measured on day 152 post infection; design: dose 50 mg/kg
[25] = test system: Mycobacterium leprae; assay: Antimycobacterial activity against Mycobacterium leprae infected in CBA/J mouse assessed as microbial growth inhibition at 50 mg/kg, po administered once monthly during logarithmic multiplication from day 60 to day 150 post infection measured on day 228 post infection; design: dose 50 mg/kg
[26] = test system: Mycobacterium leprae; assay: Antimycobacterial activity against Mycobacterium leprae infected in CBA/J mouse assessed as microbial growth inhibition at 12.5 mg/kg, po administered 5 times weekly during logarithmic multiplication from day 60 to day 150 post infection measured on day 152 post infection; design: dose 12.5 mg/kg
[27] = test system: Mycobacterium leprae; assay: Antimycobacterial activity against Mycobacterium leprae infected in CBA/J mouse assessed as microbial growth inhibition at 120 mg/kg, po administered once monthly during logarithmic multiplication from day 60 to day 150 post infection measured on day 152 post infection; design: dose 120 mg/kg
[28] = test system: Mycobacterium leprae; assay: Antimycobacterial activity against Mycobacterium leprae infected in CBA/J mouse assessed as microbial growth inhibition at 25 mg/kg, po administered once weekly during logarithmic multiplication from day 60 to day 150 post infection measured on day 152 post infection; design: dose 25 mg/kg
[29] = test system: Mycobacterium leprae; assay: Antimycobacterial activity against Mycobacterium leprae infected in CBA/J mouse assessed as microbial growth inhibition at 50 mg/kg, po administered once monthly during logarithmic multiplication from day 60 to day 150 post infection measured on day 302 to 365 post infection; design: dose 50 mg/kg
[30] = test system: Mycobacterium leprae; assay: Antimycobacterial activity against Mycobacterium leprae infected in CBA/J mouse assessed as microbial growth inhibition at 12.5 mg/kg, po administered 5 times weekly during logarithmic multiplication from day 60 to day 150 post infection measured on day 228 post infection; design: dose 12.5 mg/kg
[31] = test system: Mycobacterium leprae; assay: Antimycobacterial activity against Mycobacterium leprae infected in CBA/J mouse assessed as microbial growth inhibition at 6 mg/kg, po administered 5 times weekly during logarithmic multiplication from day 60 to day 150 post infection measured on day 152 post infection; design: dose 6 mg/kg

Measured: growth inhibition (GI)

COc1nc2ccc(Br)cc2cc1[C@@H](c1ccccc1)[C@@](O)(CCN(C)C)c1cccc2ccccc12
active: all assays above
